Here are results for six compounds from US20240109925A1, “Enhanced Anti-Proliferative and Antitumor Immune Effects of Mitochondria-Targeted Hydroxyurea” (The Medical College of Wisconsin, Inc., priority 2021, published 2024).

Like-named read-outs stand apart in the source and are kept apart here.

What all share (type): cell-based, mouse
One test has as its system CD4 T cells. The test is described as follows: In vitro differentiation of CD4 T cells (Treg / IFNg-YFP Teff), flow cytometry. Conditions: for Concentration with Maximum Effect on IFN -YFP: tested concentration with maximum effect, six days culture. An excerpt:
FIG. 4. Effects of Mito10-HU on in vitro differentiation of CD4 T cells (A) The gating strategy reflects data from one DMSO control sample. First, the total population of cells was gated (FSC-A vs SSC-A). Then, single cells were gated (SSC-W vs SSC-H). Within the single cell population, we gated on the live CD4 T cells using a fixable LIVE/DEAD stain (CD4 vs DEAD). Within the live CD4 T cells we gated on CD25+FOXP3+Tregs (FOXP3 vs CD25), as well as IFNg-YFP+CD4 T cells (IFNg-YFP vs CD4). (B) Live CD4 T cells were gated within the single cell populations, at varying concentrations of Mito10-HU, along with DMSO controls (B, top row). CD25+FOXP3+Tregs (B, middle row) and IFNg-YFP+CD4 T cells (B, bottom row) were gated within the live CD4 T cell populations, at varying concentrations of Mito10-HU, along with DMSO controls. (C) Effects of Mito10-HU on live CD4+T cells within the lymphocyte gate (C, left), the frequency of FOXP3+CD25+cells within the live CD4+T cells (C, middle), and Teff function is shown as the frequency of IFNg-YFP positive cells within the live CD4+T cells (C, right). Data shown are the means & SD, n=2 per treatment group. *p<0.05, **p<0.01 vs control.
To differentiate CD4^+ T cells into a Treg phenotype, splenocytes from SMARTA triple-reporter mice were processed and the red blood cells were lysed using an ACK (ammonium-chloride-potassium) lysis buffer. The cells were then activated with […] GP61-80 peptide (GenScript, Piscataway, NJ) and 5 ng/mL TGF-b1 (Shenandoah Biotechnology, Inc., Warwick, PA). After one day of initial skewing, […] IL-2 along with HU or Mito-HUs (n=4-20) of varying concentrations were added to the culture. Cells were cultured for six days and split once cells reached confluency; cells were replenished with IL-2 and compound (i.e., MitoHUs) accordingly. After six days in culture, cells were stained to assess the viability and phenotypic analysis via flow cytometry. LIVE/DEAD fixable violet or aqua dead cell stain (Invitrogen) was used to assess cell viability. Only live cells were gated out for further functional analysis by using a fixable LIVE/DEAD stain. First, total population of cells was gated (FSC-A vs SSC-A). Then, single cells were gated (SSC-W vs SSC-H). Within the single cell population, we gated on the live CD4 T cells using a fixable Live/Dead stain (CD4 vs DEAD). Within the live CD4 T cells, we gated on CD25^+FOXP3^+ Tregs (FOXP3 vs CD25), as well as IFNg-YFP^+ CD4 T cells (IFNg-YFP vs CD4).
The following antibodies were used for flow cytometry staining: APC-Cy7 anti-mouse CD4 (clone: GK1.5; BioLegend, San Diego, CA), APC anti-mouse CD25 (clone: PC61; BioLegend), and PE anti-mouse FOXP3 (clone: FJK-165; eBioscience, San Diego, CA). Flow cytometry data were acquired using a BD Celesta flow cytometer (BD Biosciences, San Jose, CA) flow cytometer and analyzed using FlowJo (Treestar, Inc., Ashland, OR) (FlowJo Software, 2019).

The test system of a further test is suppressive neutrophils. Briefly: In vitro differentiation of MDSCs from bone marrow cells, flow cytometry. Conditions: for IC50: Mus musculus, Neutrophil, 72 h, read-out: IC50 Suppressive Neutrophils (FIG. 6); for effect on suppressive neutrophils: three days. The text has this: (§1) FIG. 5. In vitro differentiation of MDSCs and suppressive neutrophils in the presence of different concentrations of Mito14-HU and Mito-HUs with varying hydrophobicities (A) Scheme of differentiation of MDSCs. (B) Representative flow cytometry contour plots of in vitro differentiation of MDSCs under varying concentrations of Mito14-HU using FlowJo Software (FlowJo Software, 2019). (C) Summary data depicting distribution of MDSCs after three days treatment with Mito14-HU generated from panel (B). (D and E) (D) Dose-dependent effects of Mito-HUs with different side chain lengths on M-MDSC and (E) suppressive neutrophils. Dashed lines represent the fitting curves used for determination of the IC50 values. Data shown are the means & SD.
(§2) MDSCs were generated from bone marrow cells isolated from C57b1/6 mice and cultured at a density of 1 3 10^6 cells/ml in RPMI with 10% fetal bovine serum and 25 ng/ml recombinant mouse GM-CSF (Shenandoah Biotechnology, Inc.) and 25 ng/ml recombinant mouse IL-6 (Shenandoah Biotechnology, Inc.) for three days. Then, cells were re-cultured in fresh media with inhibitors for an additional three days. Cells were scraped and examined by flow cytometry using the following markers: FITC-anti Ly6C (Biolegend, San Diego, CA), PE-Cy7 anti F4/80 (Biolegend), APC-Cy7 anti Ly6G (Biolegend), and Pacific Blue anti-CD11b (Biolegend). A gating strategy similar to that employed for the T cells was used in all MDSC differentiation assays, which were tested only on live cells after treatments. Flow cytometry data were acquired using a BD Celesta flow cytometer (BD Biosciences), and data were analyzed using FlowJo software (Treestar, Inc.).

For the next test, the system named is M-MDSC. The test is described as above. To be noted: for IC50: Mus musculus, Bone marrow cell.
Description: as §1, §2

[1] abbreviates: 72 h, read-out: IC50 M-MDSC (FIG. 6).
Setting [2] is: read-out: IC50 frequency of M-MDSCs.

With `NC(=O)NO` [HU, Hydroxyurea], the “Concentration with Maximum Effect on IFN -YFP” value (“Concentration … -YFP” for short) in the test on CD4 T cells turned out to be 200 µM. The IC50 with suppressive neutrophils (mean ± SD, three days treatment) was determined as 18000 ± 1900 nM; in the test on M-MDSC (72 h, mean ± SD, three days treatment, read-out: IC50 M-MDSC (FIG. 6)), 84000 ± 2800 nM.

For `NC(=O)NOCCCCCCCCCCCC[P+](c1ccccc1)(c1ccccc1)c1ccccc1.O=C([O-])C(F)(F)F` [Mito12-HU, 12-[(carbamoylamino)oxy]-dodecyltriphenylphosphonium trifluoroacetate], the “Concentration … -YFP” value with CD4 T cells was 10 µM. The IC50 in the test with suppressive neutrophils is over 4000 nM; in the test on M-MDSC (setting [1]), 2600 ± 110 nM; in the test with M-MDSC (setting [2]), 2600 nM.

As for `NC(=O)NOCCCCCCCCCC[P+](c1ccccc1)(c1ccccc1)c1ccccc1.O=C([O-])C(F)(F)F` [Mito10-HU, 10-[(carbamoylamino)oxy]-decyltriphenylphosphonium trifluoroacetate], in the test with CD4 T cells (six days), the “FOXP3+ Treg differentiation” value is listed as “inhibited FOXP3^+ Treg differentiation and/or survival”. The “Teff IFNg production” value in the test with CD4 T cells (six days) was “promoted Teff IFNg production”. For the same compound, the “Concentration … -YFP” value in the test on CD4 T cells is 12.5 µM. In addition, the IC50 with suppressive neutrophils is over 20000 nM; in the test on M-MDSC (setting [1]) it was 9600 ± 390 nM; in the test on M-MDSC (setting [2]), 9600 nM.

Regarding `NC(=O)NOCCCCCCCCCCCCCCCC[P+](c1ccccc1)(c1ccccc1)c1ccccc1.O=C([O-])C(F)(F)F` [Mito16-HU, 16-[(carbamoylamino)oxy]-hexadecyltriphenylphosphonium trifluoroacetate], the “Concentration … -YFP” value with CD4 T cells worked out at 0.4 µM. In addition, the IC50 with suppressive neutrophils is 560 ± 120 nM; with M-MDSC (setting [1]), 440 ± 110 nM; in the test with M-MDSC (setting [2]), 440 nM. Further, the “effect on suppressive neutrophils” value with suppressive neutrophils is listed as “greater inhibitory effects”.

As for `NC(=O)NOCCCCCCCCCCCCCCCCCCCC[P+](c1ccccc1)(c1ccccc1)c1ccccc1.O=C([O-])C(F)(F)F` [Mito20-HU, 20-[(carbamoylamino)oxy]-eicosanyltriphenylphosphonium trifluoroacetate], the “lowest concentration with maximal effect on Teff activation” value in the test on CD4 T cells (IFNg-YFP) is 0.3 mM. The “Concentration … -YFP” value with CD4 T cells is 0.3 µM. For the same compound, the values for the IC50 in the test with suppressive neutrophils, with M-MDSC (setting [1]) and with M-MDSC (setting [2]) were over 1000 nM, 440 ± 90 nM and 440 nM, respectively.

For the compound `NC(=O)NOCCCCCCCCCCCCCC[P+](c1ccccc1)(c1ccccc1)c1ccccc1.O=C([O-])C(F)(F)F` [Mito14-HU, 14-[(carbamoylamino)oxy]-tetradecyltriphenylphosphonium trifluoroacetate], the “Concentration … -YFP” value in the test with CD4 T cells was 1.5 µM. In addition, the IC50 amounted to 940 ± 990 nM with suppressive neutrophils, 890 ± 100 nM with M-MDSC (setting [1]) and 890 nM in the test with M-MDSC (setting [2]). In addition, the “effect on suppressive neutrophils” value in the test on suppressive neutrophils is “dose-dependently inhibited”. For the same compound, in the test with M-MDSC (three days), the “effect on M-MDSC” value is “dose-dependently inhibited”.
